According to PubChem BioAssay AID248 (DTP/NCI, 2004):
Several values for one entry are separate records, joined by “and”; a condition that tells them apart may be missing. Identical values can stand only once. Toxic doses and inconclusive results are not listed. Cut-off read from the data, not from the text of the source: active = T/C of 150% or more; inactive = T/C below 125%.

Tested on: L1210 leukemia ip in BDF1 mice, survival T/C
Experiment: NCI In Vivo Anticancer Drug Screen. Data for tumor model L1210 Leukemia (intraperitoneal) in B6D2F1 (BDF1) mice
Conditions: higher = longer survival
Method in brief: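 Antitumor effect is assessed in tumor-bearing animals. Survival in the compound arm is compared with a vehicle-dosed control arm and expressed as their quotient.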

[1] = endpoint: mean survival time, dose: 100.0 mg/kg/injection, schedule: Q04DX002 (ip), vehicle: saline with Tween-80
[2] = endpoint: mean survival time, dose: 200.0 mg/kg/injection, schedule: Q04DX002 (ip), vehicle: saline with Tween-80
[3] = endpoint: mean survival time, dose: 400.0 mg/kg/injection, schedule: Q04DX002 (ip), vehicle: saline with Tween-80
[4] = endpoint: mean survival time, dose: 100.0 mg/kg/injection, schedule: Q01DX009 (ip), vehicle: Klucel (hydroxypropylcellulose) (HPC)
[5] = endpoint: mean survival time, dose: 200.0 mg/kg/injection, schedule: Q01DX009 (ip), vehicle: Klucel (hydroxypropylcellulose) (HPC)
[6] = endpoint: mean survival time, dose: 100.0 mg/kg/injection, schedule: Q04DX002 (ip), vehicle: saline
[7] = endpoint: mean survival time, dose: 200.0 mg/kg/injection, schedule: Q04DX002 (ip), vehicle: saline
[8] = endpoint: mean survival time, dose: 400.0 mg/kg/injection, schedule: Q04DX002 (ip), vehicle: saline
[9] = endpoint: mean survival time, dose: 100.0 mg/kg/injection, schedule: Q04DX003 (ip), vehicle: Klucel (hydroxypropylcellulose) (HPC)
[10] = endpoint: mean survival time, dose: 200.0 mg/kg/injection, schedule: Q04DX003 (ip), vehicle: Klucel (hydroxypropylcellulose) (HPC)
[11] = endpoint: mean survival time, dose: 400.0 mg/kg/injection, schedule: Q04DX003 (ip), vehicle: Klucel (hydroxypropylcellulose) (HPC)
[12] = endpoint: mean survival time, dose: 100.0 mg/kg/injection, schedule: Q01DX009 (ip), vehicle: saline with Tween-80
[13] = endpoint: mean survival time, dose: 200.0 mg/kg/injection, schedule: Q01DX009 (ip), vehicle: saline with Tween-80
[14] = endpoint: mean survival time, dose: 400.0 mg/kg/injection, schedule: Q01DX009 (ip), vehicle: saline with Tween-80

Measured: T/C

CCCC#CC(=O)OCCCC
inactive: [1] 93 % of control | [2] 90 % of control | [3] 90 % of control

CC1=CC(=O)C=CC1(C)C(Cl)(Cl)Cl (stereo not drawn)
inactive: [4] 95 % of control | endpoint: mean survival time, dose: 100.0 mg/kg/injection, schedule: Q04DX003 (ip), vehicle: other 100 % of control | [5] 91 % of control | endpoint: mean survival time, dose: 200.0 mg/kg/injection, schedule: Q04DX003 (ip), vehicle: other 94 % of control | endpoint: mean survival time, dose: 400.0 mg/kg/injection, schedule: Q04DX003 (ip), vehicle: other 101 % of control

COc1ccc(O)c2c1C(=O)c1ccccc1C2=O
inactive: endpoint: mean survival time, dose: 25.0 mg/kg/injection, schedule: Q01DX009 (ip), vehicle: other 93 % of control | endpoint: mean survival time, dose: 50.0 mg/kg/injection, schedule: Q01DX009 (ip), vehicle: other 95 % of control | endpoint: mean survival time, dose: 100.0 mg/kg/injection, schedule: Q01DX009 (ip), vehicle: other 104 % of control | endpoint: mean survival time, dose: 200.0 mg/kg/injection, schedule: Q01DX009 (ip), vehicle: other 102 % of control | endpoint: mean survival time, dose: 400.0 mg/kg/injection, schedule: Q01DX009 (ip), vehicle: other 104 % of control

O=CCC(O)C(O)C(O)CO (stereo not drawn)
inactive: endpoint: mean survival time, dose: 62.5 mg/kg/injection, schedule: Q01DX009 (ip), vehicle: saline 115 % of control and 91 % of control | endpoint: mean survival time, dose: 125.0 mg/kg/injection, schedule: Q01DX009 (ip), vehicle: saline 94 % of control and 95 % of control | endpoint: mean survival time, dose: 125.0 mg/kg/injection, schedule: Q01DX010 (ip), vehicle: saline 94 % of control and 92 % of control | endpoint: mean survival time, dose: 125.0 mg/kg/injection, schedule: Q01DX Z (ip), vehicle: carboxymethylcellulose (CMC) 98 % of control | endpoint: mean survival time, dose: 250.0 mg/kg/injection, schedule: Q01DX001 (ip), vehicle: saline 101 % of control | endpoint: mean survival time, dose: 250.0 mg/kg/injection, schedule: Q01DX009 (ip), vehicle: saline 102 % of control and 104 % of control | endpoint: mean survival time, dose: 250.0 mg/kg/injection, schedule: Q01DX010 (ip), vehicle: saline 97 % of control and 101 % of control | endpoint: mean survival time, dose: 250.0 mg/kg/injection, schedule: Q01DX Z (ip), vehicle: carboxymethylcellulose (CMC) 102 % of control | endpoint: mean survival time, dose: 500.0 mg/kg/injection, schedule: Q01DX001 (ip), vehicle: saline 100 % of control | endpoint: mean survival time, dose: 500.0 mg/kg/injection, schedule: Q01DX009 (ip), vehicle: saline 101 % of control | endpoint: mean survival time, dose: 500.0 mg/kg/injection, schedule: Q01DX010 (ip), vehicle: saline 94 % of control and 101 % of control | endpoint: mean survival time, dose: 500.0 mg/kg/injection, schedule: Q01DX Z (ip), vehicle: carboxymethylcellulose (CMC) 116 % of control | endpoint: mean survival time, dose: 1000.0 mg/kg/injection, schedule: Q01DX001 (ip), vehicle: saline 101 % of control | endpoint: mean survival time, dose: 1000.0 mg/kg/injection, schedule: Q01DX010 (ip), vehicle: saline 102 % of control and 104 % of control | endpoint: mean survival time, dose: 1000.0 mg/kg/injection, schedule: Q01DX Z (ip), vehicle: carboxymethylcellulose (CMC) 109 % of control | endpoint: mean survival time, dose: 2000.0 mg/kg/injection, schedule: Q01DX001 (ip), vehicle: saline 106 % of control | endpoint: median survival time, dose: 62.5 mg/kg/injection, schedule: Q01DX009 (ip), vehicle: saline 100 % of control | endpoint: median survival time, dose: 125.0 mg/kg/injection, schedule: Q01DX009 (ip), vehicle: saline 111 % of control | endpoint: median survival time, dose: 250.0 mg/kg/injection, schedule: Q01DX009 (ip), vehicle: saline 100 % of control | endpoint: median survival time, dose: 500.0 mg/kg/injection, schedule: Q01DX009 (ip), vehicle: saline 100 % of control and 105 % of control

Cc1ccc(CC2=NC(C)(C)CC(C)O2)cc1 (stereo not drawn)
inactive: [6] 101 % of control | [7] 93 % of control | [8] 106 % of control

COC(=O)/C(=C\c1ccc(OC)cc1)CC(=O)O
inactive: endpoint: mean survival time, dose: 100.0 mg/kg/injection, schedule: Q01DX001 (ip), vehicle: Klucel (hydroxypropylcellulose) (HPC) 96 % of control | [4] 101 % of control and 104 % of control | endpoint: mean survival time, dose: 100.0 mg/kg/injection, schedule: Q04DX002 (ip), vehicle: Klucel (hydroxypropylcellulose) (HPC) 98 % of control and 100 % of control | [9] 90 % of control | endpoint: mean survival time, dose: 200.0 mg/kg/injection, schedule: Q01DX001 (ip), vehicle: Klucel (hydroxypropylcellulose) (HPC) 93 % of control | [5] 95 % of control and 101 % of control | endpoint: mean survival time, dose: 200.0 mg/kg/injection, schedule: Q04DX002 (ip), vehicle: Klucel (hydroxypropylcellulose) (HPC) 95 % of control and 113 % of control | [10] 97 % of control | endpoint: mean survival time, dose: 400.0 mg/kg/injection, schedule: Q01DX001 (ip), vehicle: Klucel (hydroxypropylcellulose) (HPC) 104 % of control | endpoint: mean survival time, dose: 400.0 mg/kg/injection, schedule: Q01DX009 (ip), vehicle: Klucel (hydroxypropylcellulose) (HPC) 93 % of control and 108 % of control | endpoint: mean survival time, dose: 400.0 mg/kg/injection, schedule: Q04DX002 (ip), vehicle: Klucel (hydroxypropylcellulose) (HPC) 102 % of control and 103 % of control | [11] 97 % of control

O=C(Nc1ccc(Cl)cc1C(F)(F)F)OCCOc1ccc([N+](=O)[O-])cc1
inactive: [12] 91 % of control | [13] 94 % of control | [14] 95 % of control

CCCCCCCCCCCCCCCCOc1ccccc1/C=N/O
inactive: endpoint: mean survival time, dose: 100.0 mg/kg/injection, schedule: Q04DX003 (ip), vehicle: saline with Tween-80 94 % of control | endpoint: mean survival time, dose: 200.0 mg/kg/injection, schedule: Q04DX003 (ip), vehicle: saline with Tween-80 95 % of control | endpoint: mean survival time, dose: 400.0 mg/kg/injection, schedule: Q04DX003 (ip), vehicle: saline with Tween-80 90 % of control

C1CCC2C(C1)CC1CCCCC12 (stereo not drawn)
inactive: [1] 101 % of control | [2] 105 % of control | [3] 101 % of control

NC(=N\C1=NCCN1)/C(N)=N/C1=NCCN1
inactive: endpoint: mean survival time, dose: 100.0 mg/kg/injection, schedule: Q04DX002 (ip), vehicle: gum acacia 89 % of control | endpoint: mean survival time, dose: 200.0 mg/kg/injection, schedule: Q04DX002 (ip), vehicle: gum acacia 100 % of control | endpoint: mean survival time, dose: 400.0 mg/kg/injection, schedule: Q04DX002 (ip), vehicle: gum acacia 97 % of control

BrC1CCCCN1Cc1cc2ccccc2cc1CN1CCCCC1Br (stereo not drawn)
inactive: endpoint: mean survival time, dose: 9.38 mg/kg/injection, schedule: Q01DX001 (ip), vehicle: other 100 % of control | endpoint: mean survival time, dose: 18.75 mg/kg/injection, schedule: Q01DX001 (ip), vehicle: other 102 % of control

Cc1cc(NC(=O)Nc2ccc(Cl)cc2Cl)no1
inactive: endpoint: mean survival time, dose: 12.5 mg/kg/injection, schedule: Q01DX009 (ip), vehicle: saline with Tween-80 95 % of control | endpoint: mean survival time, dose: 25.0 mg/kg/injection, schedule: Q01DX009 (ip), vehicle: saline with Tween-80 91 % of control | endpoint: mean survival time, dose: 50.0 mg/kg/injection, schedule: Q01DX009 (ip), vehicle: saline with Tween-80 91 % of control and 92 % of control | [12] 95 % of control | [13] 95 % of control

COC(=O)CCN1CCC1
inactive: [6] 97 % of control | [7] 101 % of control | [8] 97 % of control

CSC1=[N+](C)CCS1
inactive: endpoint: mean survival time, dose: 75.0 mg/kg/injection, schedule: Q01DX001 (ip), vehicle: saline 106 % of control | endpoint: mean survival time, dose: 75.0 mg/kg/injection, schedule: Q04DX003 (ip), vehicle: saline with Tween-80 109 % of control | endpoint: mean survival time, dose: 87.5 mg/kg/injection, schedule: Q01DX009 (ip), vehicle: saline 98 % of control | endpoint: mean survival time, dose: 150.0 mg/kg/injection, schedule: Q01DX001 (ip), vehicle: saline 107 % of control | endpoint: mean survival time, dose: 150.0 mg/kg/injection, schedule: Q04DX003 (ip), vehicle: saline with Tween-80 101 % of control | endpoint: mean survival time, dose: 175.0 mg/kg/injection, schedule: Q01DX009 (ip), vehicle: saline 100 % of control

CC1(C)COC(c2ccccc2)=N1
inactive: [12] 105 % of control | endpoint: mean survival time, dose: 100.0 mg/kg/injection, schedule: Q04DX003 (ip), vehicle: saline sonified 93 % of control | [13] 103 % of control | endpoint: mean survival time, dose: 200.0 mg/kg/injection, schedule: Q04DX003 (ip), vehicle: saline sonified 87 % of control | [14] 102 % of control | endpoint: mean survival time, dose: 400.0 mg/kg/injection, schedule: Q04DX003 (ip), vehicle: saline sonified 90 % of control

CNC(=O)c1cccc2c1-c1ccccc1C2=O
inactive: endpoint: mean survival time, dose: 100.0 mg/kg/injection, schedule: Q01DX001 (ip), vehicle: other 91 % of control | endpoint: mean survival time, dose: 200.0 mg/kg/injection, schedule: Q01DX001 (ip), vehicle: other 91 % of control | endpoint: mean survival time, dose: 400.0 mg/kg/injection, schedule: Q01DX001 (ip), vehicle: other 91 % of control

CC(=O)Cc1cc(C)c(C(C)=O)c(O)c1C(C)=O
inactive: [9] 103 % of control | [10] 108 % of control | [11] 105 % of control
